Test results reported in patent US11331299B2, “Medicinal use of serrulatane diterpenes” (The University of Sydney, priority 2016, dated 2022).
Read-outs that look alike come from different tables or passages of the source.

Columns and labels:
H3K36 me2 = assay: Cell-based detection methyl modifications; details: read-out: % Inhibition of Control Values
MLL complex (h) = MLL complex (h) (Homo sapiens, UniProt Q03164); assay: Epigenetic enzyme assay, Methyltransferases (MTs); assay type: biochemical
FALZ (h) bromodomain = target: T1, FALZ (h) bromodomain (Homo sapiens, UniProt Q12830); assay: Epigenetic binding assay, Bromodomain; details: 10 μM; read-out: % Inhibition of Control Specific Binding
T1 construct: Bromodomain; Eurofins CEREP (France), contract laboratory

TRIM 33 (h) PHD domain = target: T2, TRIM 33 (h) PHD domain (Homo sapiens, UniProt Q9UPN9); assay: Epigenetic binding assay, PHD domain; details: read-out: % Inhibition of Control Specific Binding
T2 construct: Eurofins CEREP (France), contract laboratory
T2 sequence (Q9UPN9 887-934 limits assumed): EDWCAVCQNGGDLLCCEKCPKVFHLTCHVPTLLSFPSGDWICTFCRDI

[1] = target: T3, KAT2A (GCN5L2) (h) bromodomain (Homo sapiens, UniProt Q92830); assay: Epigenetic binding assay, Bromodomain; details: 10 μM; read-out: % Inhibition of Control Specific Binding
T3 construct: Bromodomain
T3 sequence (Q92830 728-832 limits assumed): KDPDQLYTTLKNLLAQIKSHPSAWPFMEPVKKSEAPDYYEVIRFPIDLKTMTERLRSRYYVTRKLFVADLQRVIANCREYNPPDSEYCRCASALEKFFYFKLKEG

Chemokine CCR2B = target: T4, Chemokine CCR2B (Homo sapiens, UniProt P41597); assay: Chemokine CCR2B radio ligand binding; details: assay year 2015, read-out: % Control Response
T4 construct: expressed in transfected cells; host or cells: CHO-K1 cells
T4 sequence (P41597 1-360 isoform P41597-2): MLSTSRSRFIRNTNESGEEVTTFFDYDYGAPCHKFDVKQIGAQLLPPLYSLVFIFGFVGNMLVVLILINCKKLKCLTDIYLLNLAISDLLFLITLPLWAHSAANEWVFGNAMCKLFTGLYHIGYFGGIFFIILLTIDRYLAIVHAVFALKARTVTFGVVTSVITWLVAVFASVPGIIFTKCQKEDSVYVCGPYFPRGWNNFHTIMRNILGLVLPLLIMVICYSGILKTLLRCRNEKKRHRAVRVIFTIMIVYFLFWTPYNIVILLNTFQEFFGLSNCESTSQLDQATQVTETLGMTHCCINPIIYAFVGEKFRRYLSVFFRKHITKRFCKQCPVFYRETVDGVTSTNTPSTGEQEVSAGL
Description: The in vitro pharmacological studies were conducted by Eurofins PanLab (Taiwan) using the parameters shown in Table 13 with respect to appropriate literature references.

JMJD3 (h) = JMJD3 (h) (Homo sapiens, UniProt O15054); assay: Epigenetic enzyme assay, Demethylases (KDMs); assay type: biochemical; details: 10 μM; read-out: % Inhibition of Control Values
[2] = target: MSK1(h) (substrate histone H3 full length) (Homo sapiens, UniProt O75582); assay: Epigenetic enzyme assay, Kinases; assay type: biochemical; details: read-out: % Inhibition of Control Values
[3] = target: Rsk2(h) (substrate histone H3 full length) (Homo sapiens, UniProt P51812); assay: Epigenetic enzyme assay, Kinases; assay type: biochemical; details: read-out: % Inhibition of Control Values
CYP2C8 = target: T5, CYP2C8 (Homo sapiens, UniProt P10632); assay: Cytochrome P450 Inhibition (CYP panel); assay type: in vitro ADME; details: probe paclitaxel
T5 construct: Human liver microsomes; from tissue; host or cells: human liver microsomes
T5 sequence (P10632 1-490): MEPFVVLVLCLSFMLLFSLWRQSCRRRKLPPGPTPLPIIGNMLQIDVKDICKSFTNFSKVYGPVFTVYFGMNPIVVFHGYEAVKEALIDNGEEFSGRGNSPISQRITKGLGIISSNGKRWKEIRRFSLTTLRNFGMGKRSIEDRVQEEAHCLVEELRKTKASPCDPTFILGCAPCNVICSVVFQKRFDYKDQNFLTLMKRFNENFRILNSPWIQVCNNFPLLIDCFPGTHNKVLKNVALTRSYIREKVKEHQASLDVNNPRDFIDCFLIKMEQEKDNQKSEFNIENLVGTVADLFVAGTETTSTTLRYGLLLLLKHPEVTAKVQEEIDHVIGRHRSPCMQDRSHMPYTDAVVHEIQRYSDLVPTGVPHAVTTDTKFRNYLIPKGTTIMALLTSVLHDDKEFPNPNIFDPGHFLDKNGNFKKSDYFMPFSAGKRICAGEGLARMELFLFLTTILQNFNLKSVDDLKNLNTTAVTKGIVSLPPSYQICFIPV

RKO-AS45-1 = assay: OncoPanel cell proliferation assay (10-day); assay type: cell-based, human; details: Homo sapiens, RKOAS451, RKO-AS45-1, Colon
CYP2B6 = target: T6, CYP2B6 (Homo sapiens, UniProt P20813); assay: Cytochrome P450 Inhibition (CYP panel); details: human, probe bupropion
T6 sequence (P20813 1-491): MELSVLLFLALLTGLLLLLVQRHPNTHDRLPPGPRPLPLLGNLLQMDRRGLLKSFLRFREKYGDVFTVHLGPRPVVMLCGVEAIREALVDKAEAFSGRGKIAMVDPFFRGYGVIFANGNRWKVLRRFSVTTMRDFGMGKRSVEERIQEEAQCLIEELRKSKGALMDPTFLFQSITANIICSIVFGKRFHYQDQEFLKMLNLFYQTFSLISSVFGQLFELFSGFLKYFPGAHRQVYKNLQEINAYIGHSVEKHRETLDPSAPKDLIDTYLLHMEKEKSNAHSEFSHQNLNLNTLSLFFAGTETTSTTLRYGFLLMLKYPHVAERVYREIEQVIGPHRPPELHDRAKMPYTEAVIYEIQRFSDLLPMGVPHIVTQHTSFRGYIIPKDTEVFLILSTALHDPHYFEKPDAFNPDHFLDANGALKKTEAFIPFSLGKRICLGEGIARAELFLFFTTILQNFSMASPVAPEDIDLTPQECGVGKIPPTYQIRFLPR

KG-1 leukemia cell line = assay: OncoPanel cell proliferation assay (10-day); assay type: cell-based; details: Homo sapiens, KG-1, Leukemia
SW480 = assay: OncoPanel cell proliferation assay (10-day); assay type: cell-based, human; details: Homo sapiens, SW480, Colon

JMJD3 (h), sequence (O15054 whole entry): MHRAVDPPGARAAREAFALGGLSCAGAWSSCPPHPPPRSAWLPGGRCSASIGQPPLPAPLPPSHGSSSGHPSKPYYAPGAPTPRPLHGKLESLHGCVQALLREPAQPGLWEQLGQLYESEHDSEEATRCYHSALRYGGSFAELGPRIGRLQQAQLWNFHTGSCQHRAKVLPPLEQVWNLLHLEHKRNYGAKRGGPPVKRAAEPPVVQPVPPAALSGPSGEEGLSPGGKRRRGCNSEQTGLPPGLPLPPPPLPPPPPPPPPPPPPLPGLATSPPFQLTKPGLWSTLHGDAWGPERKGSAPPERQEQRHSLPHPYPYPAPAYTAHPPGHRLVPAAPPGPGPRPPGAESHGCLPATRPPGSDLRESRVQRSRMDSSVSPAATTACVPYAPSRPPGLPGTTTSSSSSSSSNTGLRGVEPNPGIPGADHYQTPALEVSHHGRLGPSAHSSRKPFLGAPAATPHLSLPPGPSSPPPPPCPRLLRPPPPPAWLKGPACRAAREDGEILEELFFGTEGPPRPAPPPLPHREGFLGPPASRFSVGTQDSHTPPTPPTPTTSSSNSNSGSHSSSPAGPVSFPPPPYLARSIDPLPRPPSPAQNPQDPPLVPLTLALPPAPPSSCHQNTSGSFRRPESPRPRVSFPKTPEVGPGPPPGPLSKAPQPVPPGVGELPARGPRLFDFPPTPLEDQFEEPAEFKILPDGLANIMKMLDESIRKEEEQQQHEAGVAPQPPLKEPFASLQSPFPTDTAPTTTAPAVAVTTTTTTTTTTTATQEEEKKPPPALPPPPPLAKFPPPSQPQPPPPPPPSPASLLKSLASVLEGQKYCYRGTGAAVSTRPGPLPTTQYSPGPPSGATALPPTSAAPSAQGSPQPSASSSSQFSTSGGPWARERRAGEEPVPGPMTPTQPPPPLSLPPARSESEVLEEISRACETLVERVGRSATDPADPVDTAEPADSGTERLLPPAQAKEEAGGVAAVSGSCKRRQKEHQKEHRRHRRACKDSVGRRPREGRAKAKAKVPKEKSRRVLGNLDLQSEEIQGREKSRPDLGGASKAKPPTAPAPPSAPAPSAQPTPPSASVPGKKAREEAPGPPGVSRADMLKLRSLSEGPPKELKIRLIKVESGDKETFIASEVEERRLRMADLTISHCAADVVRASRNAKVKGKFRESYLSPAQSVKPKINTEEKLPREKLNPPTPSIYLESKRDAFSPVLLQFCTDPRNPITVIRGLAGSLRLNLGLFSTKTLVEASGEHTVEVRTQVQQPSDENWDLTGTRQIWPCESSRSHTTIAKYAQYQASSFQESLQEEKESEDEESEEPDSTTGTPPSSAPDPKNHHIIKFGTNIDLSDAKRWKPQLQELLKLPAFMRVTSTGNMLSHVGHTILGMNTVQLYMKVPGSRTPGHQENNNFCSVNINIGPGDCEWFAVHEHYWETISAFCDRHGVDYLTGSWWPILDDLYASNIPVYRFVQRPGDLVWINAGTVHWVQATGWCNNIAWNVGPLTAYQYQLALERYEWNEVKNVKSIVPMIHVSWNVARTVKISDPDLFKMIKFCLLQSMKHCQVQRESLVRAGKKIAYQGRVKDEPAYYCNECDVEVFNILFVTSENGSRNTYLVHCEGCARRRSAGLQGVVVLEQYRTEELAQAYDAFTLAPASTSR
Rsk2(h) (substrate histone H3 full length), sequence (P51812 whole entry): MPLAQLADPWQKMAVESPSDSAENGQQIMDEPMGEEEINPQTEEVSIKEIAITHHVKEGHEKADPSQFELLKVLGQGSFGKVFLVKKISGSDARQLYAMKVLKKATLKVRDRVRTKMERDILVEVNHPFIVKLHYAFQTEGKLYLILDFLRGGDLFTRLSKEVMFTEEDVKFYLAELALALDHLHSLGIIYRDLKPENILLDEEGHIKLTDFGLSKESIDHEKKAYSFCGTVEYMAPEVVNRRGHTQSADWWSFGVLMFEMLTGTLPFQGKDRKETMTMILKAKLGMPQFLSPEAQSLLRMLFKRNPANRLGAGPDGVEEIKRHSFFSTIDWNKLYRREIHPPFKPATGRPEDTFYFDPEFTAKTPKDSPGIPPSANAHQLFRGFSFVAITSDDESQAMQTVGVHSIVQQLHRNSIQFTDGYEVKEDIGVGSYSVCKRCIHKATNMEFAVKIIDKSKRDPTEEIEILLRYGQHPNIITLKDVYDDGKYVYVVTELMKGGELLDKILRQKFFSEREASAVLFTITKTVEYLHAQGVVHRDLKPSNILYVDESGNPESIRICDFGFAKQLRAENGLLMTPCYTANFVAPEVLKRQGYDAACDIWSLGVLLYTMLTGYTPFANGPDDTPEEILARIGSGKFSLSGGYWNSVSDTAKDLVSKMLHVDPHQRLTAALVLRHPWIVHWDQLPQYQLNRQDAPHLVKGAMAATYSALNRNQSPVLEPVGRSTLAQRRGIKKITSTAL
MSK1(h) (substrate histone H3 full length), sequence (O75582 whole entry): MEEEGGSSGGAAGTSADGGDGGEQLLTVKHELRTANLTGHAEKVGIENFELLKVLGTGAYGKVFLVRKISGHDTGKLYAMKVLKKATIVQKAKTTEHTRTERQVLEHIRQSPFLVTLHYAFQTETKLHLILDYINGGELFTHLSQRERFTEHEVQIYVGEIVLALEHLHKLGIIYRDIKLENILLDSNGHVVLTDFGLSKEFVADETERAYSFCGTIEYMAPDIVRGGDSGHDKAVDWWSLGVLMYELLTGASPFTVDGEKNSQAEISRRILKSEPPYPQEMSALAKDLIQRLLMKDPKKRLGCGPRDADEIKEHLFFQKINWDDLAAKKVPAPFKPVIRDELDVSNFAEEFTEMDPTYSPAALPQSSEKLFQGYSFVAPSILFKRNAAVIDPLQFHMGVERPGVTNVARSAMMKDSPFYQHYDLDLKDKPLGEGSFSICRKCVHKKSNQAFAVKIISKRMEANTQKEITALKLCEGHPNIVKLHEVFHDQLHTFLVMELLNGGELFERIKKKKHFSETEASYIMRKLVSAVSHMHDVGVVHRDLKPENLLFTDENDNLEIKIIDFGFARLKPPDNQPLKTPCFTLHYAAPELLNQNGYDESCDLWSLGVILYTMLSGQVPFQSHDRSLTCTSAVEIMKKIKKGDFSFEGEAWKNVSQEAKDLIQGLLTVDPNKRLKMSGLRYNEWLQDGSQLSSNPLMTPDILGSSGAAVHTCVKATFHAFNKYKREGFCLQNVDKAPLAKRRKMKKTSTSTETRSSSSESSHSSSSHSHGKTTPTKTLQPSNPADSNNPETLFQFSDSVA

SMILES: CC(C)=CCC[C@@H]1COc2c(C)cc(O)c3c2[C@H]1CC[C@H]3C [Compound 3, 5,18-epoxy-8-hydroxyserrulat-14-ene]
- inhibition at 10 µM (H3K36 me2): -8%
- inhibition at 10 µM (MLL complex (h); 10 μM, read-out: % Inhibition of Control Values): 11%
- inhibition at 10 µM (FALZ (h) bromodomain): 5%
- inhibition at 10 µM (TRIM 33 (h) PHD domain): -2%
- inhibition at 10 µM [1]: 18%
- remaining activity at 10 µM (Chemokine CCR2B): -10%
- inhibition at 10 µM (JMJD3 (h)): 11%
- inhibition at 10 µM [2]: 10%
- inhibition at 10 µM [3]: -4%

SMILES: CC(C)=CCC[C@H](C)[C@@H]1CC[C@@H](C)c2c1cc(C)c(O)c2O [Compound 4, 7,8-dihydroxyserrulat-14-ene]
- inhibition at 1 µM (CYP2C8; human, human liver microsomes, read-out: % inhibition): 12 to 24%
- inhibition at 1 µM (CYP2C8; CYP2C8 (paclitaxel sub.), Human liver microsomes, read-out: % Inhibition of Control Values): 24%
- inhibition at 10 µM (CYP2C8; CYP2C8 (paclitaxel sub.), Human liver microsomes, 10 μM, read-out: % Inhibition of Control Values): 61%
- EC50 (RKO-AS45-1; read-out: Cell Count EC50): 12.8 µM
- GI50 (RKO-AS45-1; read-out: Cell Count GI50): 12.8 µM
- IC50 (RKO-AS45-1; read-out: Cell Count IC50): 12.8 µM
- inhibition at 1 µM (CYP2B6; human liver microsomes): 13 to 16%
- inhibition at 1 µM (CYP2B6; liver microsomes): 16%
- inhibition at 10 µM (CYP2B6; liver microsomes): 49%
- EC50 (KG-1 leukemia cell line; read-out: Cell Count EC50): 13.3 µM
- GI50 (KG-1 leukemia cell line; read-out: Cell Count GI50): 13.1 µM
- IC50 (KG-1 leukemia cell line; read-out: Cell Count IC50): 13.3 µM
- EC50 (SW480; read-out: Cell Count EC50): 12.3 µM
- GI50 (SW480; read-out: Cell Count GI50): 12.3 µM
- IC50 (SW480; read-out: Cell Count IC50): 12.3 µM

SMILES: Nc1ncnc2c1ncn2[C@@H]1O[C@H](CSCC[C@H](N)C(=O)O)[C@@H](O)[C@H]1O [SAH]
- IC50 (MLL complex (h); read-out: Reference IC50): 0.97 µM
